According to US5830869A, “Thiadiazole amide MMP inhibitors” (priority 1997, dated 1998):

Biological target: Stromelysin (Homo sapiens, UniProt P08254)
Experiment: Stromelysin inhibition, in vitro particle concentration fluorescence assay (TABLE 1, MMP Inhibition Constants)
Assay type: biochemical
Conditions: fluorescein/biotin substrate, MMP buffer pH 7.5, room temperature, 15 min preincubation with enzyme, 1-3 h with substrate
Description: Inhibitory activity is evaluated in one or more of the MMP enzymes (stromelysin, gelatinase, and collagenase) in vitro using particle concentration fluorescence assay. An inhibitor binds to MMP enzymes which prevents the degradation of a substrate by stromelysin, gelatinase, or collagenase. The substrate has attached to it a fluorescein and a biotin moiety. The intact substrate then binds to an avidin-coated particle via the biotin moiety. Once the particle is washed and dried, a fluorescent signal is generated since the fluorescent group is attached to the particle. Without an inhibitor present, the substrate is degraded by MMP enzymes and the fluorescein group is removed, therefore, no fluorescent signal can be detected. Testing compounds are dissolved in DMSO to the desired concentration, then the solutions are diluted to 1:5 with MMP buffer (50 mM Tris-HCl, pH 7.5; 150 mM NaCl; 0.02% NaN3). Serial two-fold dilutions of each compound are prepared. A concentrated, activated enzyme solution is transferred into each plate of the testing compounds, and the mixture is incubated at room temperature for 15 minutes. Thawed MMP substrate is then added into all plates, and the plates are incubated in the dark for 1-3 hours at room temperature. At this point, the substrate mixture is mixed with 0.1% avidin-coated polystyrene particles. After 15 minutes, the fluorescence values are measured following filtration and washing of the beads. Ki values are then calculated.

Stromelysin, sequence (P08254 100-477): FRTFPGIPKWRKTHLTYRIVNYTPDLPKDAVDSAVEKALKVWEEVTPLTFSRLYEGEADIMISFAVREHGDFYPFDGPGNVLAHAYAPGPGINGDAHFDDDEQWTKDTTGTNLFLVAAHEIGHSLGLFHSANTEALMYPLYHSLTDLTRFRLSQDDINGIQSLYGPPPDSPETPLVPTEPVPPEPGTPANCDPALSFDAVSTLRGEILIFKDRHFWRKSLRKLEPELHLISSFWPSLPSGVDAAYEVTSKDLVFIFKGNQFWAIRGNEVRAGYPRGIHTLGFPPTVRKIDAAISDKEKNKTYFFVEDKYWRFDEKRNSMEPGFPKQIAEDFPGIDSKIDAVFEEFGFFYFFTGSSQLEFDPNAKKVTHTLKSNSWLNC

Ki [µM] | Compound
2.22 | CC(C)(C)OC(=O)N[C@@H](Cc1c(F)c(F)c(F)c(F)c1F)C(=O)Nc1n[nH]c(=S)s1 [Example 28, (S)-[2-[(4,5-dihydro-5-thioxo-1,3,4-thiadiazol-2-yl)amino]-2-oxo-1-[(pentafluorophenyl)methyl]ethyl]carbamic acid 1,1-dimethylethyl ester]
1.47 | CC(C)(C)OC(=O)N1CCC[C@H]1C(=O)N[C@H](C(=O)Nc1n[nH]c(=S)s1)C(C)(C)C [Example 29, 1-[(1,1-dimethylethoxy)carbonyl]-L-prolyl-N-(4,5-dihydro-5-thioxo-1,3,4-thiadiazol-2-yl)-3-methyl-L-valinamide]
0.97 | O=C(CCc1ccccc1)N[C@@H](Cc1c(F)c(F)c(F)c(F)c1F)C(=O)Nc1n[nH]c(=S)s1 [Example 30, (S)-α-N-(4,5-dihydro-5-thioxo-1,3,4-thiadiazol-2-yl)-2,3,4,5,6-pentafluoro-[(1-oxo-3-phenylpropyl)amino]benzenepropanamide]
2.81 | O=C(NCCC[C@H](NC(=O)OCc1ccccc1)C(=O)Nc1n[nH]c(=S)s1)OCc1ccccc1 [Example 31, (S)-[1-[[(4,5-dihydro-5-thioxo-1,3,4-thiadiazol-2-yl)amino]carbonyl]-1,4-butanediyl]bis carbamic acid bis(phenylmethyl) ester]
0.41 | CC(C)(C)[C@H](NC(=O)Cc1c[nH]c2ccccc12)C(=O)Nc1n[nH]c(=S)s1 [Example 32]
10.2 | O=C(N[C@@H](Cc1c[nH]c2ccccc12)C(=O)Nc1n[nH]c(=S)s1)OCc1ccccc1 [Example 33, (S)-[2-[(4,5-dihydro-5-thioxo-1,3,4-thiadiazol-2-yl)amino]-1-(1H-indol-3-yl-methyl)-2-oxoethyl]-carbamic acid, phenylmethyl ester]
6.09 | O=C(N[C@@H](Cc1ccccc1)C(=O)Nc1n[nH]c(=S)s1)OCc1ccccc1 [Example 34, (S)-[2-[(4,5-dihydro-5-thioxo-1,3,4-thiadiazol-2-yl)amino]-2-oxo-1-(phenylmethyl)ethyl]carbamic acid phenylmethyl ester]
2.22 | CC(C)C[C@H](NC(=O)OCc1ccccc1)C(=O)Nc1n[nH]c(=S)s1 [Example 35, (S)-[1-[[(4,5-dihydro-5-thioxo-1,3,4-thiadiazol-2-yl)amino]carbonyl]-3-methylbutyl]carbamic acid phenylmethyl ester]
1.16 | CC(C)[C@H](NC(=O)OCc1ccccc1)C(=O)Nc1n[nH]c(=S)s1 [Example 36, (S)-[1-[[(4,5-dihydro-5-thioxo-1,3,4-thiadiazol-2-yl)amino]carbonyl]-2-methylpropyl]carbamic acid phenylmethyl ester]
0.12 | CC(C)(C)[C@H](NC(=O)OCC1c2ccccc2-c2ccccc21)C(=O)Nc1n[nH]c(=S)s1 [Example 37, (S)-[1-[[(4,5-dihydro-5-thioxo-1,3,4-thiadiazol-2-yl)amino]carbonyl]-2,2-dimethylpropyl]carbamic acid 9H-fluoren-9-yl-methyl ester]
2.27 | O=C(NCC(C(=O)Nc1n[nH]c(=S)s1)c1ccccc1)OCc1ccccc1 (centres unmarked) [Example 38, [3-[(4,5-dihydro-5-thioxo-1,3,4-thiadiazol-2-yl)amino]-3-oxo-2-phenylpropyl]carbamic acid phenylmethyl ester]
1.32 | O=C(NCC(Cc1ccccc1)C(=O)Nc1n[nH]c(=S)s1)OCc1ccccc1 (centres unmarked) [Example 39, [3-[(4,5-dihydro-5-thioxo-1,3,4-thiadiazol-2-yl)amino]-3-oxo-2-(phenylmethyl)propyl]carbamic acid phenylmethyl ester]
11.1 | CC(C)(C)C(CC(=O)Nc1n[nH]c(=S)s1)NC(=O)OCc1ccccc1 (centres unmarked) [Example 40, [3-[(4,5-dihydro-5-thioxo-1,3,4-thiadiazol-2-yl)amino]-3-oxo-1-(1,1-dimethylethyl)propyl]carbamic acid phenylmethyl ester]
0.4 | O=C(CC(NC(=O)OCc1ccccc1)c1ccccc1)Nc1nnc(S)s1 (centres unmarked) [Example 41, [3-[(4,5-dihydro-5-thioxo-1,3,4-thiadiazol-2-yl)amino]-3-oxo-1-phenylpropyl]carbamic acid phenylmethyl ester]
1.36 | O=C(CC(NC(=O)c1ccccc1)c1ccccc1)Nc1n[nH]c(=S)s1 (stereo not drawn) [Example 42, β-(benzoylamino)-N-(4,5-dihydro-5-thioxo-1,3,4-thiadiazol-2-yl)benzenepropanamide]
0.655 | O=C(CC(NC(=O)Cc1ccccc1)c1ccccc1)Nc1n[nH]c(=S)s1 (stereo not drawn) [Example 43, N-(4,5-dihydro-5-thioxo-1,3,4-thiadiazol-2-yl)-β-[(phenylacetyl)amino]benzenepropanamide]
0.69 | O=C(CC(NC(=O)CCc1ccccc1)c1ccccc1)Nc1n[nH]c(=S)s1 (centres unmarked) [Example 44]
0.72 | CC(C)(C)OC(=O)NC(CC(=O)Nc1n[nH]c(=S)s1)c1ccccc1 (centres unmarked) [Example 45, [3-[(4,5-dihydro-5-thioxo-1,3,4-thiadiazol-2-yl)amino]-3-oxo-1-phenylpropyl]carbamic acid 1,1-dimethylethyl ester]
0.44 | O=C(CC(NC(=O)OCC1c2ccccc2-c2ccccc21)c1ccccc1)Nc1n[nH]c(=S)s1 (centres unmarked) [Example 46, [3-[(4,5-dihydro-5-thioxo-1,3,4-thiadiazol-2-yl)amino]-3-oxo-1-phenylpropyl]carbamic acid 9H-fluoren-9-yl methyl ester]
1.36 | COCC(=O)NC(CC(=O)Nc1n[nH]c(=S)s1)c1ccccc1 (stereo not drawn) [Example 47, N-(4,5-dihydro-5-thioxo-1,3,4-thiadiazol-2-yl)-β-[(methoxyacetyl)amino]benzenepropanamide]
0.313 | O=C(CC(NC(=O)COc1ccccc1)c1ccccc1)Nc1n[nH]c(=S)s1 (stereo not drawn) [Example 48, N-(4,5-dihydro-5-thioxo-1,3,4-thiadiazol-2-yl)-β-[(phenoxyacetyl)amino]benzenepropanamide]
0.84 | O=C(CC(NC(=O)COCc1ccccc1)c1ccccc1)Nc1n[nH]c(=S)s1 (stereo not drawn) [Example 49, N-(4,5-dihydro-5-thioxo-1,3,4-thiadiazol-2-yl)-β-[(phenylmethoxyacetyl)amino]benzenepropanamide]
1.5 | O=C(C[C@H](NC(=O)OCc1ccccc1)c1ccccc1)Nc1n[nH]c(=S)s1 [Example 51, (S)-[3-[(4,5-dihydro-5-thioxo-1,3,4-thiadiazol-2-yl)amino]-3-oxo-1-phenylpropyl]carbamic acid phenylmethyl ester]
0.26 | O=C(C[C@@H](NC(=O)OCc1ccccc1)c1ccccc1)Nc1n[nH]c(=S)s1 [Example 52, (R)-[3-[(4,5-dihydro-5-thioxo-1,3,4-thiadiazol-2-yl)amino]-3-oxo-1-phenylpropyl]carbamic acid phenylmethyl ester]
15 | O=C(N[C@H]1CCCC[C@H]1C(=O)Nc1n[nH]c(=S)s1)OCC1c2ccccc2-c2ccccc21 [Example 53, (1S-cis-)-[2-[[(4,5-dihydro-5-thioxo-1,3,4-thiadiazol-2-yl)amino]carbonyl]cyclohexyl]carbamic acid 9H-fluoren-9-yl-methyl ester]
1.2 | CC(C)C[C@@H](CC(=O)Nc1n[nH]c(=S)s1)NC(=O)OCc1ccccc1 [Example 54, (S)-[1-[2-[[4,5-dihydro-5-thioxo-1,3,4-thiadiazol-2-yl)amino]-2-oxoethyl]-3-methylbutyl]carbamic acid phenylmethyl ester]
4.05 | CCOC(=O)C(Cc1ccccc1)C(=O)Nc1n[nH]c(=S)s1 (stereo not drawn) [Example 57, ethyl α-[[(4,5-dihydro-5-thioxo-1,3,4-thiadiazol-2yl)amino]carbonyl]benzenepropanoate]
5 | CCOC(=O)C(C(=O)Nc1n[nH]c(=S)s1)C(C)(C)C (stereo not drawn) [Example 58, ethyl α-[[(4,5-dihydro-5-thioxo-1,3,4-thiadiazol-2-yl)amino]carbonyl]-3,3-dimethylbutanoate]
4.3 | CNC(=O)C(C(=O)Nc1n[nH]c(=S)s1)C(C)(C)C (stereo not drawn) [Example 59, N-methyl-α-[[(4,5-dihydro-5-thioxo-1,3,4-thiadiazol-2-yl)amino]carbonyl]-3,3-dimethylbutanamide]
